Laboratory results from patent publication US8063048B2, “Acetylenyl-pyrazolo-pyrimidine derivatives” (Hoffmann-La Roche Inc., priority 2005, dated 2011).

Row | SMILES | melting point
1 | O=S(=O)(NCCN1CCOCC1)c1ccc(C#Cc2cnn3c(C(F)(F)F)cc(-c4ccc(C(F)(F)F)cc4)nc23)s1 [Example 158, 5-[7-Trifluoromethyl-5-(4-trifluoromethyl-phenyl)-pyrazolo[1,5-a]pyrimidin-3-ylethynyl]-thiophene-2-sulfonic acid (2-morpholin-4-yl-ethyl)-amide] | 219 °C
2 | CN(C)CCNS(=O)(=O)c1ccc(C#Cc2cnn3c(C(F)(F)F)cc(-c4ccc(C(F)(F)F)cc4)nc23)s1 [Example 159, 5-[7-Trifluoromethyl-5-(4-trifluoromethyl-phenyl)-pyrazolo[1,5-a]pyrimidin-3-ylethynyl]-thiophene-2-sulfonic acid (2-dimethylamino-ethyl)-amide] | 178 °C
3 | O=S(=O)(c1ccc(C#Cc2cnn3c(C(F)(F)F)cc(-c4ccc(C(F)(F)F)cc4)nc23)s1)N(CCO)CCO [Example 162, 5-[7-Trifluoromethyl-5-(4-trifluoromethyl-phenyl)-pyrazolo[1,5-a]pyrimidin-3-ylethynyl]-thiophene-2-sulfonic acid bis-(2-hydroxy-ethyl)-amide] | 137 °C
4 | Cc1cc(-c2cc(C(F)F)n3ncc(C#Cc4ccc(S(N)(=O)=O)cc4)c3n2)ccc1Cl [Example 173, 4-[5-(4-Chloro-3-methyl-phenyl)-7-difluoromethyl-pyrazolo[1,5-a]pyrimidin-3-ylethynyl]-benzenesulfonamide] | 237 °C
5 | Cc1cc(-c2cc(C(F)F)n3ncc(C#Cc4cc(S(N)(=O)=O)c(F)cc4F)c3n2)ccc1Cl [Example 174, 5-[5-(4-Chloro-3-methyl-phenyl)-7-difluoromethyl-pyrazolo[1,5-a]pyrimidin-3-ylethynyl]-2,4-difluoro-benzenesulfonamide] | 270 °C
6 | NS(=O)(=O)c1cc(C#Cc2ncn3c(C(F)(F)F)cc(-c4ccc(C(F)(F)F)cc4)nc23)c(F)cc1F [Example 177, 2,4-Difluoro-5-[4-trifluoromethyl-2-(4-trifluoromethyl-phenyl)-imidazo[1,5-a]pyrimidin-8-ylethynyl]-benzenesulfonamide] | 247 °C
7 | NS(=O)(=O)c1ccc(C#Cc2cnc3c(C(F)(F)F)cc(-c4ccc(C(F)(F)F)cc4)cn23)cc1 [Example 181, 4-[8-Trifluoromethyl-6-(4-trifluoromethyl-phenyl)-imidazo[1,2-a]pyridin-3-ylethynyl]-benzenesulfonamide] | 278 to 280 °C
8 | FC(F)(F)c1ccc(-c2cc(C(F)(F)F)n3ncc(C#Cc4cnc(Cl)nc4)c3n2)cc1 [Example 182, 3-(2-Chloro-pyrimidin-5-ylethynyl)-7-trifluoromethyl-5-(4-trifluoromethyl-phenyl)-pyrazolo[1,5-a]pyrimidine] | 157 to 159 °C
9 | FC(F)(F)c1ccc(-c2cc(C(F)(F)F)n3ncc(C#Cc4ccnc(Cl)n4)c3n2)cc1 [Example 183, 3-(2-Chloro-pyrimidin-4-ylethynyl)-7-trifluoromethyl-5-(4-trifluoromethyl-phenyl)-pyrazolo[1,5-a]pyrimidine] | 192 to 195 °C
10 | OCc1ccc(C#Cc2cnn3c(C(F)(F)F)cc(-c4ccc(C(F)(F)F)cc4)nc23)cc1 [Example 184, {4-[7-Trifluoromethyl-5-(4-trifluoromethyl-phenyl)-pyrazolo[1,5-a]pyrimidin-3-ylethynyl]-phenyl}-methanol] | 200 to 202 °C
11 | CC(C)(C)OC(=O)NCCNS(=O)(=O)c1cc(C#Cc2cnn3c(C(F)F)cc(-c4ccc(C(F)(F)F)cc4)nc23)c(F)cc1F [Example 185, (2-{5-[7-Difluoromethyl-5-(4-trifluoromethyl-phenyl)-pyrazolo[1,5-a]pyrimidin-3-ylethynyl]-2,4-difluoro-benzenesulfonylamino}-ethyl)-carbamic acid tert-butyl ester] | 203 to 204 °C (dec.)
12 | CCOc1cc(-c2cc(C(F)(F)F)n3ncc(C#Cc4ccc(N)nc4)c3n2)ccc1C(F)(F)F [Example 189, 5-[5-(3-Ethoxy-4-trifluoromethyl-phenyl)-7-trifluoromethyl-pyrazolo[1,5-a]pyrimidin-3-ylethynyl]-pyridin-2-ylamine] | 218 °C
13 | FC(F)(F)c1ccc(-c2cc(C(F)(F)F)c3ncc(C#Cc4cccnc4)n3c2)cc1 [Example 190, 3-Pyridin-3-ylethynyl-8-trifluoromethyl-6-(4-trifluoromethyl-phenyl)-imidazo[1,2-a]pyridine] | 169 to 170 °C

Next, values leading:

Row | melting point | SMILES
14 | 194 to 196 °C | NS(=O)(=O)c1ccc(C#Cc2cnn3c(CO)cc(-c4ccc(Cl)cc4)nc23)s1 [Example 156, 5-[5-(4-Chloro-phenyl)-7-hydroxymethyl-pyrazolo[1,5-a]pyrimidin-3-ylethynyl]-thiophene-2-sulfonic acid amide]
15 | 225 °C | NS(=O)(=O)c1ccc(C#Cc2cnn3c(C(F)F)cc(-c4cccc(C(F)(F)F)c4)nc23)s1 [Example 160, 5-[7-Difluoromethyl-5-(3-trifluoromethyl-phenyl)-pyrazolo[1,5-a]pyrimidin-3-ylethynyl]-thiophene-2-sulfonic acid amide]
16 | 201 °C | CC(C)(C)NS(=O)(=O)c1ccc(C#Cc2cnn3c(C(F)F)cc(-c4cccc(C(F)(F)F)c4)nc23)s1 [Example 161, 5-[7-Difluoromethyl-5-(3-trifluoromethyl-phenyl)-pyrazolo[1,5-a]pyrimidin-3-ylethynyl]-thiophene-2-sulfonic acid tert-butylamide]
17 | 247 °C | O=S(=O)(NC(CO)CO)c1ccc(C#Cc2cnn3c(C(F)(F)F)cc(-c4ccc(C(F)(F)F)cc4)nc23)s1 [Example 163, 5-[7-Trifluoromethyl-5-(4-trifluoromethyl-phenyl)-pyrazolo[1,5-a]pyrimidin-3-ylethynyl]-thiophene-2-sulfonic acid (2-hydroxy-1-hydroxymethyl-ethyl)-amide]
18 | 210 °C | NS(=O)(=O)c1ccc(C#Cc2cnn3c(C(F)F)cc(-c4ccc(C(F)(F)F)cc4)nc23)s1 [Example 164, 5-[7-Difluoromethyl-5-(4-trifluoromethyl-phenyl)-pyrazolo[1,5-a]pyrimidin-3-ylethynyl]-thiophene-2-sulfonic acid amide]
19 | 187 °C | CC(C)(C)NS(=O)(=O)c1ccc(C#Cc2cnn3c(C(F)F)cc(-c4ccc(C(F)(F)F)cc4)nc23)s1 [Example 165, 5-[7-Difluoromethyl-5-(4-trifluoromethyl-phenyl)-pyrazolo[1,5-a]pyrimidin-3-ylethynyl]-thiophene-2-sulfonic acid tert-butylamide]
20 | 277 °C | NS(=O)(=O)c1cc(C#Cc2cnn3c(C(F)F)cc(-c4cccc(C(F)(F)F)c4)nc23)c(F)cc1F [Example 166, 5-[7-Difluoromethyl-5-(3-trifluoromethyl-phenyl)-pyrazolo[1,5-a]pyrimidin-3-ylethynyl]-2,4-difluoro-benzenesulfonamide]
21 | 199 °C | NS(=O)(=O)c1cccc(C#Cc2cnn3c(C(F)F)cc(-c4cccc(C(F)(F)F)c4)nc23)c1 [Example 167, 3-[7-Difluoromethyl-5-(3-trifluoromethyl-phenyl)-pyrazolo[1,5-a]pyrimidin-3-ylethynyl]-benzenesulfonamide]
22 | 215 °C | Cc1cc(-c2cc(C(F)F)n3ncc(C#Cc4cccc(S(N)(=O)=O)c4)c3n2)ccc1Cl [Example 168, 3-[5-(4-Chloro-3-methyl-phenyl)-7-difluoromethyl-pyrazolo[1,5-a]pyrimidin-3-ylethynyl]-benzenesulfonamide]
23 | 157 °C | CC(C)(CO)NS(=O)(=O)c1ccc(C#Cc2cnn3c(C(F)F)cc(-c4ccc(C(F)(F)F)cc4)nc23)s1 [Example 169, 5-[7-Difluoromethyl-5-(4-trifluoromethyl-phenyl)-pyrazolo[1,5-a]pyrimidin-3-ylethynyl]-thiophene-2-sulfonic acid (2-hydroxy-1,1-dimethyl-ethyl)-amide]
24 | 168 °C | CC(C)(CO)NS(=O)(=O)c1ccc(C#Cc2cnn3c(C(F)F)cc(-c4cccc(C(F)(F)F)c4)nc23)s1 [Example 170, 5-[7-Difluoromethyl-5-(3-trifluoromethyl-phenyl)-pyrazolo[1,5-a]pyrimidin-3-ylethynyl]-thiophene-2-sulfonic acid (2-hydroxy-1,1-dimethyl-ethyl)-amide]
25 | 220 °C | Cc1cc(-c2cc(C(F)F)n3ncc(C#Cc4ccc(S(=O)(=O)NC(C)(C)C)s4)c3n2)ccc1Cl [Example 171, 5-[5-(4-Chloro-3-methyl-phenyl)-7-difluoromethyl-pyrazolo[1,5-a]pyrimidin-3-ylethynyl]-thiophene-2-sulfonic acid tert-butylamide]
26 | 216 °C | Cc1cc(-c2cc(C(F)F)n3ncc(C#Cc4ccc(S(N)(=O)=O)s4)c3n2)ccc1Cl [Example 172, 5-[5-(4-Chloro-3-methyl-phenyl)-7-difluoromethyl-pyrazolo[1,5-a]pyrimidin-3-ylethynyl]-thiophene-2-sulfonic acid amide]
27 | 145 °C | Cc1cc(-c2cc(C(F)F)n3ncc(C#Cc4ccc(S(=O)(=O)NC(C)(C)CO)s4)c3n2)ccc1Cl [Example 175, 5-[5-(4-Chloro-3-methyl-phenyl)-7-difluoromethyl-pyrazolo[1,5-a]pyrimidin-3-ylethynyl]-thiophene-2-sulfonic acid (2-hydroxy-1,1-dimethyl-ethyl)-amide]
28 | 245 °C | NS(=O)(=O)c1ccc(C#Cc2cnn3c(C(F)F)cc(-c4cccc(C(F)(F)F)c4)nc23)cc1 [Example 176, 4-[7-Difluoromethyl-5-(3-trifluoromethyl-phenyl)-pyrazolo[1,5-a]pyrimidin-3-ylethynyl]-benzenesulfonamide]
29 | 245 °C | CCOc1cccc(-c2cc(C(F)F)n3ncc(C#Cc4ccc(S(N)(=O)=O)cc4)c3n2)c1 [Example 187, 4-[7-Difluoromethyl-5-(3-ethoxy-phenyl)-pyrazolo[1,5-a]pyrimidin-3-ylethynyl]-benzenesulfonamide]
30 | 216 °C | Nc1ccc(C#Cc2cnn3c(C(F)F)cc(-c4ccc(C(F)(F)F)cc4)nc23)cn1 [Example 188, 5-[7-Difluoromethyl-5-(4-trifluoromethyl-phenyl)-pyrazolo[1,5-a]pyrimidin-3-ylethynyl]-pyridin-2-ylamine]
